In PMC9120017, “Inhibition mechanism of the chloride channel TMEM16A by the pore blocker 1PBC” (Nature Communications, 2022):
Read-outs that look alike come from different tables or passages of the source.

Target: T1, mouse TMEM16A mutant I551A (Mus musculus, UniProt Q8BHY3, I551A)
T1 construct: expressed in transfected cells; host or cells: HEK293T
T1 sequence (Q8BHY3 1-960 I551A): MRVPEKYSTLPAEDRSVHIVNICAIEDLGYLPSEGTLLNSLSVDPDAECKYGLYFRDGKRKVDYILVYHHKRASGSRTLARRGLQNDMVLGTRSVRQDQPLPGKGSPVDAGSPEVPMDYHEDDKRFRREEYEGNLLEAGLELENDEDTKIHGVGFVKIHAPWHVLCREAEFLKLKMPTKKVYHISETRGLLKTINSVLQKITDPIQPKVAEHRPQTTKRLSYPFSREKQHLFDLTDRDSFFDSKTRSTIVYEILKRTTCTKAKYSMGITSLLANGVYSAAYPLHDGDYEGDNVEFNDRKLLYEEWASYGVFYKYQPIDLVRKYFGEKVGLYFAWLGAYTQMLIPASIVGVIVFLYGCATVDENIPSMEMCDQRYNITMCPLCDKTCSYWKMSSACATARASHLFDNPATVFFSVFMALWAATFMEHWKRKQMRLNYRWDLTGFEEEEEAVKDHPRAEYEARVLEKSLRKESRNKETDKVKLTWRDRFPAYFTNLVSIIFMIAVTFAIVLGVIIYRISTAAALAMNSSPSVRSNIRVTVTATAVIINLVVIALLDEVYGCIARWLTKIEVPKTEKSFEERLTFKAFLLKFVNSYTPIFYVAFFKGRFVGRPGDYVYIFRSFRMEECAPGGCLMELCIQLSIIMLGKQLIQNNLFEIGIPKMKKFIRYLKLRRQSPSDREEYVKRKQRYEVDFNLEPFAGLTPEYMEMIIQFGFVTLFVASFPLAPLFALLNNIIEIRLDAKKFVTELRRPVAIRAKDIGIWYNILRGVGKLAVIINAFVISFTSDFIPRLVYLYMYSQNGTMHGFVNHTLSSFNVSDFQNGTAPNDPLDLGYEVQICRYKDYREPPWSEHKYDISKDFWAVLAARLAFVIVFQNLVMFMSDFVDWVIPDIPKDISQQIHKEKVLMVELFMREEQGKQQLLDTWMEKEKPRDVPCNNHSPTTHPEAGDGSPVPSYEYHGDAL
Assay: Inside-out patch recording of 1PBC block, constitutively active mutant I551A
Assay type: cell-based
Settings: for remaining activity at 3 µM: 3 µM 1PBC; for remaining activity at 10 µM: 10 µM 1PBC; for remaining activity at 30 µM: 30 µM 1PBC
Description: HEK293T cells (ATCC CRL-1573) were maintained in Dulbecco’s modified Eagle’s medium (DMEM; Sigma-Aldrich) supplemented with 10 U ml^−1 penicillin, 0.1 mg ml^−1 streptomycin (Sigma-Aldrich), 2 mM L-glutamine (Sigma-Aldrich), and 10% FBS (Sigma-Aldrich) in a humidified atmosphere containing 5% CO2 at 37 °C. HEK293S GnTI^− cells (ATCC CRL-3022) were maintained in HyClone HyCell TransFx-H medium (GE Healthcare) supplemented with 10 U ml^−1 penicillin, 0.1 mg ml^−1 streptomycin, 4 mM L-glutamine, 0.15% poloxamer 188 (Sigma-Aldrich), and 1% FBS in an atmosphere containing 5% CO2 at 185 rpm at 37 °C. The ac splice variant of mouse TMEM16A (UniProt ID: Q8BHY3), mouse TMEM16B (UniProt ID: Q8CFW1), or mouse TMEM16F (UniProt ID: Q6P9J9) bearing a 3C cleavage site, a Venus YFP, a Myc tag, and a Streptavidin-binding peptide (SBP) downstream of the open reading frame in a modified pcDNA3.1 vector (Invitrogen) were used as described previously[21],[31]. Mutations were introduced using a modified QuikChange method[58] and were verified by sequencing.
HEK293T cells were transfected with 3–4 μg DNA per 6 cm Petri dish using the calcium phosphate co-precipitation method and were used within 24–96 h after transfection. Recordings were performed on inside-out patches excised from HEK293T cells expressing the construct of interest. Patch pipettes were pulled from borosilicate glass capillaries (O.D. 1.5 mm, I.D. 0.86 mm, Sutter Instrument) and were fire-polished with a microforge (Narishige) before use. Pipette resistance was typically 3–8 MΩ when filled with the recording solutions detailed below. Seal resistance was typically 4 GΩ or higher. Voltage-clamp recordings were made using Axopatch 200B, Digidata 1550, and Clampex 10.7 (Molecular Devices). Analog signals were filtered with the in-built 4-pole Bessel filter at 10 kHz and were digitized at 20 kHz. Solution exchange was achieved using a gravity-fed system through a theta glass pipette mounted on an ultra-fast piezo-driven stepper (Siskiyou). […] All recordings were performed at 20 °C.
A symmetrical ionic condition was used throughout. Stock solution with Ca^2+-EGTA contained 150 mM NaCl, 5.99 mM Ca(OH)2, 5 mM EGTA, and 10 mM HEPES at pH 7.40. Stock solution with EGTA contained 150 mM NaCl, 5 mM EGTA, and 10 mM HEPES at pH 7.40. Free Ca^2+ concentrations were adjusted by mixing the stock solutions at the required ratios calculated using the WEBMAXC program (http://web.stanford.edu/~cpatton/webmaxcS.htm). Patch pipettes were filled with the stock solution with Ca^2+-EGTA, which has a free Ca^2+ concentration of 1 mM. 1PBC (ChemBridge) stock was reconstituted in anhydrous DMSO (Sigma-Aldrich) at 100 mM and stored at −20 °C. Working solutions with 1PBC were prepared by serial dilution. Unless otherwise stated, experiments were performed at a saturating Ca^2+ concentration as shown in Supplementary Table 1 and the primary data were corrected for current rundown as described previously[21],[25].
Concentration-response relations, obtained from the ratio of the I-V plots before and after the application of the blocker, were fitted to the Hill equation,1 I/Imax=1/1+IC50/[blocker]^h where I/Imax is the normalized current responses, IC50 defines the concentration at which inhibition is at its half-maximum, and h is the Hill coefficient.

[1] = 0 mV, 2 µM Ca2+, read-out: I/Imax
[2] = 0 mV, zero Ca2+, read-out: I/Imax

Which “I/Imax_+80mV” value (0Ca, 3 μM 1PBC) does the source give for N#Cc1c(C(F)(F)F)cc(O)n2c1nc1ccccc12 [1PBC] here?
The value was 0.9297.

What about the I/Imax_-80mV (0Ca, 3 μM 1PBC) of the same compound?
The I/Imax_-80mV was 0.9659.

What about the “I/Imax_+80mV” value (0Ca, 10 μM 1PBC) of the same compound?
Its value is 0.7725.

What about the I/Imax_-80mV (0Ca, 10 μM 1PBC) of the same compound?
Its I/Imax_-80mV is 0.8504.

What about the “I/Imax_+80mV” value (0Ca, 30 μM 1PBC) of the same compound?
Its value is 0.5277.

What about the I/Imax_-80mV (0Ca, 30 μM 1PBC) of the same compound?
Its I/Imax_-80mV is 0.6475.

And the “I/Imax_+80mV” value (0Ca, 100 μM 1PBC)?
The value was 0.2921.

And the I/Imax_-80mV (0Ca, 100 μM 1PBC)?
Its I/Imax_-80mV is 0.3933.

And the remaining activity at 1 µM (1 µM 1PBC, 0 mV, 2 µM Ca2+, read-out: I/Imax)?
Its remaining activity at 1 µM is 80.9%.

What about the remaining activity at 3 µM [1] of the same compound?
Its remaining activity at 3 µM is 60.1%.

And the remaining activity at 3 µM [2]?
Its remaining activity at 3 µM is 93.2%.

And the remaining activity at 10 µM [1]?
Its remaining activity at 10 µM is 31.1%.

And the remaining activity at 10 µM [2]?
Its remaining activity at 10 µM is 80.6%.

And the remaining activity at 30 µM [1]?
Its remaining activity at 30 µM is 14.8%.

What about the remaining activity at 30 µM [2] of the same compound?
Its remaining activity at 30 µM is 58.2%.

And the remaining activity at 100 µM (100 µM 1PBC, 0 mV, zero Ca2+, read-out: I/Imax)?
The remaining activity at 100 µM was 33.3%.

What about the “I/Imax_+80mV” value (Ca, 1 μM 1PBC) of the same compound?
The value was 0.7719.

What about the I/Imax_-80mV (Ca, 1 μM 1PBC) of the same compound?
The I/Imax_-80mV was 0.9016.

What about the “I/Imax_+80mV” value (Ca, 3 μM 1PBC) of the same compound?
The value was 0.5347.

And the I/Imax_-80mV (Ca, 3 μM 1PBC)?
Its I/Imax_-80mV is 0.7407.

And the “I/Imax_+80mV” value (Ca, 10 μM 1PBC)?
The value was 0.2656.

What about the I/Imax_-80mV (Ca, 10 μM 1PBC) of the same compound?
The I/Imax_-80mV was 0.4452.

What about the “I/Imax_+80mV” value (Ca, 30 μM 1PBC) of the same compound?
The value was 0.1169.

What about the I/Imax_-80mV (Ca, 30 μM 1PBC) of the same compound?
Its I/Imax_-80mV is 0.2272.
